Where two headings read alike, the source gives them in different places. Marks after values point to notes of the source that are not given here.
What was measured:
human plasma [1] = settings: cited from earlier work; for reported Fub based on RED: human plasma, ref Wetmore et al.
pooled human plasma [2] = assay: Rapid Equilibrium Dialysis; assay type: in vitro ADME; settings: 10 μM, 37 °C, 4 hours, 8K MWCO membrane
[3] = assay type: in vitro ADME; settings: RED with PBS in both chambers, 10 μM, 4 hours, 8K MWCO
pooled human plasma [4] = assay: Solid Phase Micro-Extraction; assay type: in vitro ADME; settings: 10 μM, room temperature, C18 fibers
human plasma [5] = settings: ref Musteata et al., 2006; cited from earlier work
[6] = ref Wetmore, 2015, Wetmore et al., 2012

Which “Literature % unbound (equilibrium dialysis)” value (human plasma [1]; [6]) does the source give for `c1cc2c3c(cccc3c1)CC2` [Acenaphthene] here?
The value was 4.5%^b.

For `c1ccc(-c2ccccc2)cc1` [Biphenyl], which “Literature % unbound (equilibrium dialysis)” value (human plasma [1]) is on record?
Its value is 1.6%^b.

Which results are given for `CNC(=O)Oc1cccc2ccccc12` [Carbaryl]?
reported Fub based on RED (human plasma [1]; 2012): 70%; Literature % unbound (equilibrium dialysis) (human plasma [1]; [6]): 69%^b

Which results are given for `COc1cc(N)c(Cl)cc1C(=O)NC1CCN(CCCOc2ccc(F)cc2)CC1OC` (stereo not drawn) [Cisapride, reference compound]?
Literature % unbound (equilibrium dialysis) (human plasma [1]; ref FDA package insert): 2-3%^c; unbound fraction (Fub) by RED (pooled human plasma [2]): most highly bound

With `CC(C)NCC(O)c1ccc(O)c(O)c1` (stereo not drawn) [Isoproterenol, reference compound] as the molecule, how does the “Literature % unbound (equilibrium dialysis)” value (human plasma [1]; ref Kelly and McDevitt, 1978) read?
Its value is 35%^a.

What about the “unbound fraction (Fub) by RED” value (pooled human plasma [2]) of the same molecule?
Its value is “mostly free”.

What does the source list for `c1ccc2ccccc2c1` [Naphthalene]?
reported Fub based on RED (human plasma [1]; 2012): ~ 2%; protein-free free fraction (equilibration percentage) [3]: > 80%

Which “reported Fub based on RED” value (human plasma [1]; 2012) does the source give for `CC1(C)C(C=C(Cl)Cl)C1C(=O)OCc1cccc(Oc2ccccc2)c1` (stereo not drawn) [Permethrin] here?
The value was 0%.

For `Cc1nc(N(C)C)nc(OC(=O)N(C)C)c1C` [Pirimicarb], which “Literature % unbound (equilibrium dialysis)” value (human plasma [1]; [6]) is on record?
The value was 16%^b.

For `CC(C)NCC(O)COc1cccc2ccccc12` (stereo not drawn) [Propranolol], which “unbound fraction (Fub) by SPME” value (pooled human plasma [4]) is on record?
Its value is “consistent with the reported value”.

What about the “Literature % unbound (SPME)” value (human plasma [5]) of the same molecule?
Its value is 25%^e.

For `c1cc2ccc3cccc4ccc(c1)c2c34` [Pyrene], which “Literature % unbound (equilibrium dialysis)” value (human plasma [1]; [6]) is on record?
Its value is 2.4%^b.

— publication PMC6717004 (Toxicology in vitro : an international journal published in …, 2019)
